One data set relates to Low Nutrient Bacteria. Briefly: MICkit microbiological testing of pipe water and scrapings, low nutrient bacteria. The format is cell-based. The procedure:
(§1) One end cap of the pipe was removed and the contaminated water poured out of the pipe and a pre-sterilization sample of the water and scrapings from the interior pipe wall were taken under sterile conditions for microbiological testing employing a MICkit™ supplied by Bioindustrial Technologies, Inc., Georgetown, Tex. The microbiological samples were incubated for three weeks at 35° C. and observed for microbiological growth.
(§2) Steam was then injected into the test pipe by opening the ball valve slowly with the steam pressure at 30 lbs pressure (135° C.). The temperature at the end of the test pipe rapidly rose to 94° C. and then appeared to remain nearly constant. The ball valve was then closed and the pipe cooled to room temperature. The condensate water and scrapings from the interior of the test pipe were collected by removal of the pipe from the adapter under sterile conditions. The samples so collected were microbiologically tested as above.
(§3) The end cap was then replaced with a ball valve and the steam sterilization was repeated. The ball valve at the end of the pipe was opened slightly to allow condensate and live steam to escape. The temperature at the end of the pipe rapidly rose to 110° C. The test was terminated by closing the ball valves and allowing the pipe to cool to room temperature. The pipe was again sampled for microbiological testing as above.
(§4) Microbiologically contaminated water was obtained from a “dead end” water feed-line to a fire protection system and was assayed microbiologically using the MICkit™ giving the following results after only 2 days of incubation at 35° C.:
(§5) The steam was allowed to slowly enter the pipe by regulating the input ball valve with the outlet ball valve open. Steam flowed through the pipe, heating it rapidly to near 100° C. The outlet ball valve was then nearly closed allowing the steam pressure in the pipe to increase. The temperature at the end of the pipe reached 135° C. and was kept there for five minutes. The inlet and outlet ball valves were closed and the pipe with the valves closed was removed and cooled in a stream of water. A small amount of sterile water (autoclaved at 121° C. for 15 minutes) was added to the sterilized pipe and the pipe raised, lowered and rotated to rinse the inside of the pipe system. The pipe was then opened and the water and scrapings from the side of the pipe were taken using sterile techniques for microbiological analysis.
(§6) The drained pipe was then sterilized as in Example 2 (per FIG. 2) using steam and a temperature of 135° C. by controlling the inlet and outlet ball valves. The ball valves at the ends of the pipe were then closed, the pipe removed from the test station and cooled with water. A small amount of sterile water was introduced and the inside of the pipe rinsed with it for several minutes. The pipe was then opened and the water and scrapings from the side of the pipe taken for microbiological analysis.

A further data set deals with Iron Related Bacteria. Briefly: MICkit microbiological testing of pipe water and scrapings, iron related bacteria. It is filed as cell-based. The procedure: as §1, §2, §3, §4, §5, §6
The subject of another data set is Acid Producing Bacteria. Briefly: MICkit microbiological testing of pipe water and scrapings, acid producing bacteria. It is filed as cell-based. The procedure: as §1, §2, §3, §4, §5, §6
In data set [1] the test system is Sulfate Reducing Bacteria. Put plainly: MICkit microbiological testing of pipe water and scrapings, sulfate reducing bacteria. The format is cell-based. The procedure: as §1, §2, §3, §4, §5, §6
Data set [2] relates to aerobic bacteria (colony forming units). Briefly: Aerobic plate count of pipe water and scrapings. It is filed as cell-based. The procedure:
Microbiologically contaminated water was obtained from a “dead end” water feed-line to a fire protection system and was assayed microbiologically using the […] giving the following results after only 2 days of incubation at 35° C.: [table] The steam was allowed to slowly enter the pipe by regulating the input ball valve with the outlet ball valve open. Steam flowed through the pipe, heating it rapidly to near 100° C. The outlet ball valve was then nearly closed allowing the steam pressure in the pipe to increase. The temperature at the end of the pipe reached 135° C. and was kept there for five minutes. The inlet and outlet ball valves were closed and the pipe with the valves closed was removed and cooled in a stream of water. A small amount of sterile water (autoclaved at 121° C. for 15 minutes) was added to the sterilized pipe and the pipe raised, lowered and rotated to rinse the inside of the pipe system. The pipe was then opened and the water and scrapings from the side of the pipe were taken using sterile techniques for microbiological analysis. The drained pipe was then sterilized as in Example 2 (per FIG. 2) using steam and a temperature of 135° C. by controlling the inlet and outlet ball valves. The ball valves at the ends of the pipe were then closed, the pipe removed from the test station and cooled with water. A small amount of sterile water was introduced and the inside of the pipe rinsed with it for several minutes. The pipe was then opened and the water and scrapings from the side of the pipe taken for microbiological analysis.

Data set [3] in a line: Analysis of residual sodium hypochlorite in water standing in iron pipe. As to conditions: 50 ppm in potable tap water in iron pipe, ambient temperature, after 24 hours. It is filed as physicochemical. From the text: The sterilized pipe from Example 2 was then filled with potable tap water containing 50 ppm sodium hypochlorite and allowed to stand at ambient temperature. The sodium hypochlorite, being an oxidizing agent, rapidly dissipated when in contact with the interior iron pipe surface.

Setting [4] is: Example 1, contaminated 1-inch sprinkler pipe, steam, pipe end 94° C., capped end, incubated three weeks at 35° C.
[5] abbreviates: Example 1, steam repeated with outlet ball valve, pipe end 110° C., incubated three weeks at 35° C.
The mark [6] stands for this setting: Example 2, new pipe infected with dead end water, steam 135° C. for five minutes, incubation 15 days.
Setting [7] is: Example 4, chemically cleaned contaminated pipe, steam 135° C., after 15 days.
[8] abbreviates: Example 3, steam-sterilized pipe filled with potable tap water containing 50 ppm sodium hypochlorite, 24 hours plus seven days at ambient temperature.
[9] abbreviates: Example 5, sterilized pipe recontaminated 16 hours with dead end water, then tap water with 50 ppm sodium hypochlorite overnight, incubation 15 days.

This note sets out measurements from patent US6960321B1, “Sterilization of fire sprinkler systems” (priority 1999, dated 2005).

Consider `O` [steam], for which the LNB result was “Negative” in the data set with Low Nutrient Bacteria (setting [4]), “Negative” in the data set on Low Nutrient Bacteria (setting [5]), “negative” in the data set on Low Nutrient Bacteria (setting [6]) and “negative” with Low Nutrient Bacteria (setting [7]). Moreover, the IRB entry in the data set with Iron Related Bacteria (setting [4]) is listed as “Negative”; in the data set with Iron Related Bacteria (setting [5]), “Negative”; with Iron Related Bacteria (setting [6]) it was “negative”; with Iron Related Bacteria (setting [7]) it was “negative”. Moreover, the APB entry in the data set with Acid Producing Bacteria (setting [4]) is “Negative”; with Acid Producing Bacteria (setting [5]), “Negative”; with Acid Producing Bacteria (setting [6]), “negative”; in the data set with Acid Producing Bacteria (setting [7]), “negative”. Further, the SRB entry in data set [1] (setting [4]) is recorded as “Negative”; in data set [1] (setting [5]), “Negative”; in data set [1] (setting [6]), “negative”; in data set [1] (setting [7]), “negative”. Moreover, the APC in data set [2] (setting [6]) and in data set [2] (setting [7]) was < 1 colony forming units per mil in each case.

On to `OCl` [sodium hypochlorite, reference compound], for which the LNB result in the data set with Low Nutrient Bacteria (setting [8]) is on record as “negative”; in the data set on Low Nutrient Bacteria (setting [9]), “positive”. Moreover, the IRB entry in the data set on Iron Related Bacteria (setting [8]) and in the data set with Iron Related Bacteria (setting [9]) was “negative” each time. In addition, the APB result with Acid Producing Bacteria (setting [8]) and in the data set with Acid Producing Bacteria (setting [9]) was “negative” in each case. In addition, the SRB entry in data set [1] (setting [8]) and in data set [1] (setting [9]) was “negative” throughout. The APC in data set [2] (setting [8]) and in data set [2] (setting [9]) was < 1 colony forming units per mil each time. The “sodium hypochlorite remaining in the water” value in data set [3] was determined as 0 ppm.
